Source: PubChem BioAssay (NCI)
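A five-concentration, 48-hour dose response in 96-well plates underlies each endpoint, interpolated linearly between surrounding concentrations. TGI is the concentration that stops growth completely.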

What was measured:
Assay in all cases: DTP human tumour cell line panel, 48 h
HOP-62 NSCLC = test system: HOP-62 NSCLC
NCI-H460 lung = test system: NCI-H460 lung
UACC-62 melanoma = test system: UACC-62 melanoma
SK-OV-3 ovarian = test system: SK-OV-3 ovarian
M14 melanoma = test system: M14 melanoma
SR leukemia = test system: SR leukemia
LXFL 529 NSCLC = test system: LXFL 529 NSCLC
HOP-18 NSCLC = test system: HOP-18 NSCLC
HCC-2998 colon = test system: HCC-2998 colon
786-0 renal = test system: 786-0 renal
LOX IMVI melanoma = test system: LOX IMVI melanoma
RPMI-8226 leukemia = test system: RPMI-8226 leukemia
HCT-116 colon = test system: HCT-116 colon
UACC-257 melanoma = test system: UACC-257 melanoma
CCRF-CEM leukemia = test system: CCRF-CEM leukemia
U251 CNS = test system: U251 CNS
XF 498 CNS = test system: XF 498 CNS
HT29 colon = test system: HT29 colon
M19-MEL melanoma = test system: M19-MEL melanoma
SNB-19 CNS = test system: SNB-19 CNS
SNB-78 CNS = test system: SNB-78 CNS
RXF 393 renal = test system: RXF 393 renal
EKVX NSCLC = test system: EKVX NSCLC
NCI-H522 lung = test system: NCI-H522 lung
MOLT-4 leukemia = test system: MOLT-4 leukemia
SF-268 CNS = test system: SF-268 CNS
NCI-H226 lung = test system: NCI-H226 lung
TK-10 renal = test system: TK-10 renal
DLD-1 colon = test system: DLD-1 colon
SN12C renal = test system: SN12C renal
UO-31 renal = test system: UO-31 renal
OVCAR-3 ovarian = test system: OVCAR-3 ovarian
IGROV1 ovarian = test system: IGROV1 ovarian
SW-620 colon = test system: SW-620 colon
KM20L2 colon = test system: KM20L2 colon
OVCAR-4 ovarian = test system: OVCAR-4 ovarian
ACHN renal = test system: ACHN renal
K-562 leukemia = test system: K-562 leukemia
HCT-15 colon = test system: HCT-15 colon
SK-MEL-2 melanoma = test system: SK-MEL-2 melanoma
HOP-92 NSCLC = test system: HOP-92 NSCLC
SNB-75 CNS = test system: SNB-75 CNS
KM12 colon = test system: KM12 colon
A549 NSCLC = test system: A549 NSCLC
SK-MEL-5 melanoma = test system: SK-MEL-5 melanoma
DMS 273 small cell lung = test system: DMS 273 small cell lung
SF-295 CNS = test system: SF-295 CNS
OVCAR-5 ovarian = test system: OVCAR-5 ovarian
NCI-H23 lung = test system: NCI-H23 lung
A498 renal = test system: A498 renal
COLO 205 colon = test system: COLO 205 colon
DMS 114 small cell lung = test system: DMS 114 small cell lung
HL-60(TB) leukemia = test system: HL-60(TB) leukemia
SF-539 CNS = test system: SF-539 CNS
SK-MEL-28 melanoma = test system: SK-MEL-28 melanoma
OVCAR-8 ovarian = test system: OVCAR-8 ovarian
MALME-3M melanoma = test system: MALME-3M melanoma
NCI/ADR-RES ovarian = test system: NCI/ADR-RES ovarian
MCF7 breast = test system: MCF7 breast
SN12K1 renal = test system: SN12K1 renal
RXF-631 renal = test system: RXF-631 renal
CAKI-1 renal = test system: CAKI-1 renal

SMILES: O=C1/C(=C/c2ccccc2)CN(C(=O)Oc2ccc(Cl)cc2)C/C1=C\c1ccccc1
- TGI (HOP-62 NSCLC): 14.7 µM
- TGI (NCI-H460 lung): 9.84 µM
- TGI (UACC-62 melanoma): 5.42 µM
- TGI (SK-OV-3 ovarian): 20.5 µM
- TGI (M14 melanoma): 3.48 µM
- TGI (SR leukemia): 4.33 µM
- TGI (LXFL 529 NSCLC): 3.64 µM
- TGI (HOP-18 NSCLC): 36.6 µM
- TGI (HCC-2998 colon): 2.99 µM
- TGI (786-0 renal): 3.96 µM
- TGI (LOX IMVI melanoma): 2.51 µM
- TGI (RPMI-8226 leukemia): 0.902 µM
- TGI (HCT-116 colon): 0.593 µM
- TGI (UACC-257 melanoma): 4.33 µM
- TGI (CCRF-CEM leukemia): 6.39 µM
- TGI (U251 CNS): 2.97 µM
- TGI (XF 498 CNS): 5.71 µM
- TGI (HT29 colon): 2.97 µM
- TGI (M19-MEL melanoma): 2.41 µM
- TGI (SNB-19 CNS): 10.1 µM
- TGI (SNB-78 CNS): > 26.8 µM
- TGI (RXF 393 renal): 4.14 µM
- TGI (EKVX NSCLC): 26.7 µM
- TGI (NCI-H522 lung): 5.51 µM
- TGI (MOLT-4 leukemia): 8.63 µM
- TGI (SF-268 CNS): 8.77 µM
- TGI (NCI-H226 lung): 16.6 µM
- TGI (TK-10 renal): 14.9 µM
- TGI (DLD-1 colon): 3.61 µM
- TGI (SN12C renal): 3.88 µM
- TGI (UO-31 renal): 15.5 µM
- TGI (OVCAR-3 ovarian): 10.6 µM
- TGI (IGROV1 ovarian): 10.2 µM
- TGI (SW-620 colon): 2.77 µM
- TGI (KM20L2 colon): 8.28 µM
- TGI (OVCAR-4 ovarian): 3.52 µM
- TGI (ACHN renal): 8.86 µM
- TGI (K-562 leukemia): 5.79 µM
- TGI (HCT-15 colon): 2.73 µM
- TGI (SK-MEL-2 melanoma): 16.5 µM
- TGI (HOP-92 NSCLC): 42.3 µM
- TGI (SNB-75 CNS): 12.6 µM
- TGI (KM12 colon): 3.28 µM
- TGI (A549 NSCLC): 16.6 µM
- TGI (SK-MEL-5 melanoma): 4.14 µM
- TGI (DMS 273 small cell lung): 4.18 µM
- TGI (SF-295 CNS): 5.79 µM
- TGI (OVCAR-5 ovarian): 23.2 µM
- TGI (NCI-H23 lung): 11.1 µM
- TGI (A498 renal): 7.81 µM
- TGI (COLO 205 colon): 9.53 µM
- TGI (DMS 114 small cell lung): 3.68 µM
- TGI (HL-60(TB) leukemia): 4.5 µM
- TGI (SF-539 CNS): 5.92 µM
- TGI (SK-MEL-28 melanoma): 4.26 µM
- TGI (OVCAR-8 ovarian): 3.6 µM
- TGI (MALME-3M melanoma): 26.7 µM

SMILES: C=C1CC(OC)(C(O)C(=O)N[C@H]2OCO[C@H]3C2O[C@H](C[C@@H](COC)OC)C(C)(C)C3OC)O[C@H](C)[C@@H]1C (some centres undefined)
- TGI (NCI-H460 lung): < 0.00482 µM
- TGI (UACC-62 melanoma): < 0.00482 µM
- TGI (HOP-18 NSCLC): < 0.00482 µM
- TGI (HCC-2998 colon): < 0.00482 µM
- TGI (RPMI-8226 leukemia): < 0.00482 µM
- TGI (HCT-116 colon): < 0.00482 µM
- TGI (UACC-257 melanoma): < 0.00482 µM
- TGI (CCRF-CEM leukemia): < 0.00482 µM
- TGI (U251 CNS): < 0.00482 µM
- TGI (XF 498 CNS): < 0.00482 µM
- TGI (HT29 colon): < 0.00482 µM
- TGI (M19-MEL melanoma): < 0.00482 µM
- TGI (SNB-19 CNS): < 0.00482 µM
- TGI (SNB-78 CNS): < 0.00482 µM
- TGI (RXF 393 renal): < 0.00482 µM
- TGI (EKVX NSCLC): < 0.00482 µM
- TGI (SF-268 CNS): < 0.00482 µM
- TGI (NCI-H226 lung): < 0.00482 µM
- TGI (DLD-1 colon): < 0.00482 µM
- TGI (SN12C renal): < 0.00482 µM
- TGI (UO-31 renal): < 0.00482 µM
- TGI (IGROV1 ovarian): < 0.00482 µM
- TGI (SW-620 colon): 48.2 µM
- TGI (NCI/ADR-RES ovarian): < 0.00482 µM
- TGI (MCF7 breast): < 0.00482 µM
- TGI (KM20L2 colon): < 0.00482 µM
- TGI (OVCAR-4 ovarian): < 0.00482 µM
- TGI (K-562 leukemia): < 0.00482 µM
- TGI (HCT-15 colon): < 0.00482 µM
- TGI (SN12K1 renal): < 0.00482 µM
- TGI (SNB-75 CNS): < 0.00482 µM
- TGI (KM12 colon): < 0.00482 µM
- TGI (SK-MEL-5 melanoma): < 0.00482 µM
- TGI (SF-295 CNS): < 0.00482 µM
- TGI (A498 renal): < 0.00482 µM
- TGI (COLO 205 colon): < 0.00482 µM
- TGI (DMS 114 small cell lung): < 0.00482 µM
- TGI (SF-539 CNS): < 0.00482 µM
- TGI (SK-MEL-28 melanoma): < 0.00482 µM

SMILES: COC(=O)c1c(OC)cccc1C(=O)O
- TGI (HOP-62 NSCLC): > 100 µM
- TGI (NCI-H460 lung): > 100 µM
- TGI (UACC-62 melanoma): > 100 µM
- TGI (SK-OV-3 ovarian): > 100 µM
- TGI (M14 melanoma): > 100 µM
- TGI (LXFL 529 NSCLC): > 100 µM
- TGI (HOP-18 NSCLC): > 100 µM
- TGI (HCC-2998 colon): > 100 µM
- TGI (786-0 renal): > 100 µM
- TGI (RPMI-8226 leukemia): > 100 µM
- TGI (HCT-116 colon): > 100 µM
- TGI (UACC-257 melanoma): > 100 µM
- TGI (CCRF-CEM leukemia): > 100 µM
- TGI (U251 CNS): > 100 µM
- TGI (HT29 colon): > 100 µM
- TGI (M19-MEL melanoma): > 100 µM
- TGI (SNB-19 CNS): > 100 µM
- TGI (SNB-78 CNS): > 100 µM
- TGI (RXF 393 renal): > 100 µM
- TGI (EKVX NSCLC): > 100 µM
- TGI (NCI-H522 lung): > 100 µM
- TGI (MOLT-4 leukemia): > 100 µM
- TGI (SF-268 CNS): > 100 µM
- TGI (NCI-H226 lung): > 100 µM
- TGI (TK-10 renal): > 100 µM
- TGI (SN12C renal): > 100 µM
- TGI (UO-31 renal): > 100 µM
- TGI (OVCAR-3 ovarian): > 100 µM
- TGI (RXF-631 renal): > 100 µM
- TGI (IGROV1 ovarian): > 100 µM
- TGI (SW-620 colon): > 100 µM
- TGI (KM20L2 colon): > 100 µM
- TGI (OVCAR-4 ovarian): > 100 µM
- TGI (ACHN renal): > 100 µM
- TGI (K-562 leukemia): > 100 µM
- TGI (HCT-15 colon): > 100 µM
- TGI (SK-MEL-2 melanoma): > 100 µM
- TGI (SNB-75 CNS): > 100 µM
- TGI (KM12 colon): > 100 µM
- TGI (A549 NSCLC): > 100 µM
- TGI (CAKI-1 renal): > 100 µM
- TGI (SK-MEL-5 melanoma): > 100 µM
- TGI (DMS 273 small cell lung): > 100 µM
- TGI (SF-295 CNS): > 100 µM
- TGI (OVCAR-5 ovarian): > 100 µM
- TGI (NCI-H23 lung): > 100 µM
- TGI (A498 renal): > 100 µM
- TGI (COLO 205 colon): > 100 µM
- TGI (DMS 114 small cell lung): > 100 µM
- TGI (HL-60(TB) leukemia): > 100 µM
- TGI (SF-539 CNS): > 100 µM
- TGI (OVCAR-8 ovarian): > 100 µM
- TGI (MALME-3M melanoma): > 100 µM
